Legend:
Test in all cases: Bliss excess, mean over the matrix (fraction); higher = more synergy
A375 (Melanoma) = test system: A375 (Melanoma)
How it was run: (§1)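 Cell lines in DMEM/F12 or RPMI with 10% FBS were plated in 1536-well plates, held 24 hours at 37°C, 5% CO2, then given two-drug dose matrices for 72 hours (DMSO typically 0.2%). Viability was read by CellTiter-Glo 2.0 luminescence and scaled as inhibition from 0 (vehicle wells) to 1 (blank wells). Combination Emax is the second-highest inhibition in the matrix; Bliss excess is observed combination effect minus expected EA + EB − EA·EB, EA and EB being single-agent effects.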

[1] = test system: NCI-H2009 (Lung Adenocarcinoma)
How it was run: as §1

[2] = test system: COR-L105 (Lung Adenocarcinoma)
How it was run: as §1

[3] = test system: CAL-85-1 (Breast Carcinoma)
How it was run: as §1

NCI-H2452 (Mesothelioma) = test system: NCI-H2452 (Mesothelioma)
How it was run: as §1

[4] = test system: MRK-nu-1 (Breast Carcinoma)
How it was run: as §1

[5] = test system: L-363 (Plasma Cell Myeloma)
How it was run: as §1

[6] = test system: NCI-H835 (Other Solid Carcinomas)
How it was run: as §1

[7] = test system: C2BBe1 (Colorectal Carcinoma)
How it was run: as §1

[8] = test system: JJN-3 (Plasma Cell Myeloma)
How it was run: as §1

[9] = test system: TOV-21G (Ovarian Carcinoma)
How it was run: as §1

[10] = test system: SNU-1 (Gastric Carcinoma)
How it was run: as §1

[11] = test system: GRANTA-519 (B-Cell Non-Hodgkin's Lymphoma)
How it was run: as §1

HT-144 (Melanoma) = test system: HT-144 (Melanoma)
How it was run: as §1

[12] = test system: JURL-MK1 (Chronic Myelogenous Leukemia)
How it was run: as §1

[13] = test system: NCI-H1048 (Small Cell Lung Carcinoma)
How it was run: as §1

Structure (SMILES) | Bliss excess (A375 (Melanoma)) | Bliss excess [1] | Bliss excess [2] | Bliss excess [3] | Bliss excess (NCI-H2452 (Mesothelioma)) | Bliss excess [4] | Bliss excess [5] | Bliss excess [6] | Bliss excess [7] | Bliss excess [8] | Bliss excess [9] | Bliss excess [10] | Bliss excess [11] | Bliss excess (HT-144 (Melanoma)) | Bliss excess [12] | Bliss excess [13]
C=CCn1c(=O)c2cnc(Nc3ccc(N4CCN(C)CC4)cc3)nc2n1-c1cccc(C(C)(C)O)n1 [AZD1775] + Nc1ccn([C@@H]2O[C@H](CO)[C@@H](O)C2(F)F)c(=O)n1 [Gemcitabine] (first compound max 1 µM, partner max 0.3 µM) | 0.0519 | 0.0606 | -0.0263 | 0.0733 | -0.0727 | 0.045 | 0.125 | -0.0789 | – | – | – | – | – | – | – | –
CN(CCO)CC[C@H](CSc1ccccc1)Nc1ccc(S(=O)(=O)NC(=O)c2ccc(N3CCC([C@@H](O)c4ccccc4-c4ccc(Cl)cc4)CC3)cc2)cc1S(=O)(=O)C(F)(F)F [AZD4320] + CS(=O)(=O)CCNCc1ccc(-c2ccc3ncnc(Nc4ccc(OCc5cccc(F)c5)c(Cl)c4)c3c2)o1 [Lapatinib] (first compound max 1 µM, 7x7, partner max 10 µM) | 0.0275 | -0.0017 | -0.0212 | 0.0241 | -0.019 | -0.0167 | 0.0082 | 0.0449 | – | – | – | – | – | – | – | –
COc1nnc2ccc(N3CCC(c4ccc(OCCN5CCN(C)C(=O)[C@H]5C)cc4)CC3)nn12 [AZD5153] + CN(CC[C@H](CSC1=CC=CC=C1)NC2=C(C=C(C=C2)S(=O)(=O)NC(=O)C3=CC=C(C=C3)N4CCC(CC4)[C@H](C5=CC=CC=C5C6=CC=C(C=C6)Cl)O)S(=O)(=O)C(F)(F)F)CCO [AZD4320] (first compound max 1 µM, 7x7, partner max 1 µM) | 0.0183 | – | – | – | – | – | – | – | -0.0521 | -0.0443 | 0.0211 | 0.0023 | 0.0352 | 0.0439 | -0.0137 | 0.0831
Cc1c2c(nn1C)CSCc1cc(n(C)n1)CSc1cc(c3ccccc3c1)OCCCc1c(C(=O)O)n(C)c3c-2c(Cl)ccc13 [AZD5991] + CC(=O)O[C@H]1C(=O)[C@@]2(C)[C@H]([C@H](OC(=O)c3ccccc3)[C@]3(O)C[C@H](OC(=O)[C@H](O)[C@@H](NC(=O)c4ccccc4)c4ccccc4)C(C)=C1C3(C)C)[C@]1(OC(C)=O)CO[C@@H]1C[C@@H]2O [Paclitaxel] (first compound max 1 µM, 7x7, partner max 3 µM) | -0.0149 | 0.0027 | -0.0367 | -0.0082 | 0.0378 | 0.0286 | -0.0043 | 0.0252 | – | – | – | – | – | – | – | –
Cc1c2c(nn1C)CSCc1cc(n(C)n1)CSc1cc(c3ccccc3c1)OCCCc1c(C(=O)O)n(C)c3c-2c(Cl)ccc13 [AZD5991] + CS(=O)(=O)CCNCc1ccc(-c2ccc3ncnc(Nc4ccc(OCc5cccc(F)c5)c(Cl)c4)c3c2)o1 [Lapatinib] (first compound max 1 µM, 7x7, partner max 10 µM) | 0.0109 | -0.0136 | -0.0414 | -0.0213 | -0.0576 | 0.0112 | 0.0132 | 0.019 | – | – | – | – | – | – | – | –
Cc1c2c(nn1C)CSCc1cc(n(C)n1)CSc1cc(c3ccccc3c1)OCCCc1c(C(=O)O)n(C)c3c-2c(Cl)ccc13 [AZD5991] + Nc1ccn([C@@H]2O[C@H](CO)[C@@H](O)C2(F)F)c(=O)n1 [Gemcitabine] (first compound max 1 µM, 7x7, partner max 0.3 µM) | 0.0115 | -0.0361 | 0.0042 | -0.027 | -0.0642 | 0.0571 | 0.0938 | 0.0842 | – | – | – | – | – | – | – | –
C[C@@H]1COCCN1c1cc(C2([S@](C)(=N)=O)CC2)nc(-c2ccnc3[nH]ccc23)n1 [AZD6738] + C1CC(C1)(C(=O)[O-])C(=O)[O-].N.N.[Pt+2] [Carboplatin] (first compound max 10 µM, 7x7, partner max 10 µM) | -0.0113 | -0.0556 | -0.0272 | -0.0551 | -0.0212 | -0.0127 | -0.0089 | -0.0529 | – | – | – | – | – | – | – | –
C[C@@H]1COCCN1c1cc(C2([S@](C)(=N)=O)CC2)nc(-c2ccnc3[nH]ccc23)n1 [AZD6738] + Nc1ccn([C@@H]2O[C@H](CO)[C@@H](O)C2(F)F)c(=O)n1 [Gemcitabine] (first compound max 10 µM, 7x7, partner max 0.3 µM) | 0.0602 | 0.0954 | 0.003 | 0.0227 | 0.0333 | -0.0532 | 0.0716 | 0.0442 | – | – | – | – | – | – | – | –
C[C@@H](Nc1cc(F)cc(F)c1)c1cc(C(=O)N(C)C)cc2c(=O)cc(N3CCOCC3)oc12 [AZD8186] + C1CN(CCC1(C(=O)N[C@@H](CCO)C2=CC=C(C=C2)Cl)N)C3=NC=NC4=C3C=CN4 [AZD5363] (first compound max 10 µM, 7x7, partner max 10 µM) | 0.011 | -0.034 | 0.0189 | -0.0285 | -0.0466 | -0.0418 | -0.0138 | -0.0164 | – | – | – | – | – | – | – | –
C[C@@H](Oc1cc(-c2cnn(C3CCNCC3)c2)cnc1N)c1c(Cl)ccc(F)c1Cl [Crizotinib] + CC1=C(C(=CC=C1)Cl)NC(=O)C2=CN=C(S2)NC3=CC(=NC(=N3)C)N4CCN(CC4)CCO [Dasatinib] (first compound max 10 µM, 7x7, partner max 2 µM) | -0.0256 | 0.0662 | -0.0313 | 0.001 | 0.0069 | -0.0711 | 0.004 | 0.0045 | – | – | – | – | – | – | – | –
C[C@@H](Oc1cc(-c2cnn(C3CCNCC3)c2)cnc1N)c1c(Cl)ccc(F)c1Cl [Crizotinib] + Cn1cnc2c(F)c(Nc3ccc(Br)cc3Cl)c(C(=O)NOCCO)cc21 [Selumetinib] (first compound max 10 µM, 7x7, partner max 10 µM) | 0.0035 | 0.0062 | -0.0146 | -0.055 | -0.0494 | -0.0633 | 0.0316 | -0.0653 | – | – | – | – | – | – | – | –
CS(=O)(=O)CCNCc1ccc(-c2ccc3ncnc(Nc4ccc(OCc5cccc(F)c5)c(Cl)c4)c3c2)o1 [Lapatinib] + Cn1cnc2c(F)c(Nc3ccc(Br)cc3Cl)c(C(=O)NOCCO)cc21 [Selumetinib] (first compound max 10 µM, 7x7, partner max 10 µM) | -0.0348 | -0.0531 | 0.0224 | 0.0396 | -0.0363 | 0.0764 | -0.0027 | -0.0013 | – | – | – | – | – | – | – | –
CS(=O)(=O)CCNCc1ccc(-c2ccc3ncnc(Nc4ccc(OCc5cccc(F)c5)c(Cl)c4)c3c2)o1 [Lapatinib] + NC1(c2ccc(-c3nc4ccn5c(=O)[nH]nc5c4cc3-c3ccccc3)cc2)CCC1 [MK-2206] (first compound max 10 µM, 7x7, partner max 10 µM) | -0.0031 | -0.0246 | 0.014 | -0.0016 | -0.0302 | 0.0505 | 0.026 | 0.0357 | – | 0.0508 | – | – | – | – | – | –
O=C(c1cc(Cc2n[nH]c(=O)c3ccccc23)ccc1F)N1CCN(C(=O)C2CC2)CC1 [Olaparib] + CN(CC[C@H](CSC1=CC=CC=C1)NC2=C(C=C(C=C2)S(=O)(=O)NC(=O)C3=CC=C(C=C3)N4CCC(CC4)[C@H](C5=CC=CC=C5C6=CC=C(C=C6)Cl)O)S(=O)(=O)C(F)(F)F)CCO [AZD4320] (first compound max 10 µM, 7x7, partner max 1 µM) | -0.0091 | -0.0603 | -0.049 | 0.0221 | -0.0697 | 0.0031 | 0.0718 | -0.043 | – | – | – | – | – | – | – | –
O=C(c1cc(Cc2n[nH]c(=O)c3ccccc23)ccc1F)N1CCN(C(=O)C2CC2)CC1 [Olaparib] + COc1nnc2ccc(N3CCC(c4ccc(OCCN5CCN(C)C(=O)[C@H]5C)cc4)CC3)nn12 [AZD5153] (first compound max 10 µM, 7x7, partner max 1 µM) | -0.0229 | -0.044 | -0.0689 | -0.026 | -0.0361 | 0.0665 | 0.0357 | -0.0422 | – | – | – | – | – | – | – | –
O=C(c1cc(Cc2n[nH]c(=O)c3ccccc23)ccc1F)N1CCN(C(=O)C2CC2)CC1 [Olaparib] + Cc1c2c(nn1C)CSCc1cc(n(C)n1)CSc1cc(c3ccccc3c1)OCCCc1c(C(=O)O)n(C)c3c-2c(Cl)ccc13 [AZD5991] (first compound max 10 µM, 7x7, partner max 1 µM) | -0.0264 | -0.0445 | -0.0494 | -0.0484 | -0.0199 | 0.0135 | 0.0277 | -0.0467 | – | – | – | – | – | – | – | –
CC(=O)c1c(C)c2cnc(Nc3ccc(N4CCNCC4)cn3)nc2n(C2CCCC2)c1=O [Palbociclib] + CN(CC[C@H](CSC1=CC=CC=C1)NC2=C(C=C(C=C2)S(=O)(=O)NC(=O)C3=CC=C(C=C3)N4CCC(CC4)[C@H](C5=CC=CC=C5C6=CC=C(C=C6)Cl)O)S(=O)(=O)C(F)(F)F)CCO [AZD4320] (first compound max 10 µM, 7x7, partner max 1 µM) | -0.0569 | – | – | – | – | – | – | – | -0.0652 | -0.014 | -0.0853 | -0.066 | 0.0102 | -0.0774 | -0.075 | 0.019
Cc1nc(-c2cn3c(n2)-c2ccc(-c4cnn(C(C)(C)C(N)=O)c4)cc2OCC3)n(C(C)C)n1 [Taselisib] + O=C(Nc1ccc2[nH]nc(-c3ccncc3)c2c1)[C@@H]1CCN(CC(=O)N2CCN(c3ccc(-c4ncccn4)cc3)CC2)C1 [SCH772984] (first compound max 10 µM, 7x7, partner max 5 µM) | 0.133 | 0.0964 | 0.052 | 0.0682 | -0.0276 | 0.0385 | 0.176 | 0.0323 | – | – | – | – | – | – | – | –
CC1(C)CCC(CN2CCN(c3ccc(C(=O)NS(=O)(=O)c4ccc(NCC5CCOCC5)c([N+](=O)[O-])c4)c(Oc4cnc5[nH]ccc5c4)c3)CC2)=C(c2ccc(Cl)cc2)C1 [Venetoclax] + CS(=O)(=O)CCNCc1ccc(-c2ccc3ncnc(Nc4ccc(OCc5cccc(F)c5)c(Cl)c4)c3c2)o1 [Lapatinib] (first compound max 1 µM, 7x7, partner max 10 µM) | -0.0207 | -0.0358 | -0.0535 | -0.044 | -0.0546 | -0.0243 | -0.0033 | -0.0206 | – | – | – | – | – | – | – | –

Reference: the supplement of paper PMC11061612
